Reference: the OPERA property sets (Mansouri et al. 2018)

Conditions: for log10 BCF / log10 biotransformation half-life (days): fish

Work on `CSC(C)C` yielded a boiling point of 84.8 °C, a log10 vapour pressure (mmHg) of 1.9 and a melting point of -102 °C.

`CCCCCCCCCc1cccc2ccccc12` showed a boiling point of 366 °C and a melting point of 8 °C.

For `CC(=O)c1cc(Cl)ccc1Cl`, the melting point was 12 °C.

In the case of `CCC=C(C)CC`, the boiling point is reported as 112 °C and the log10 vapour pressure (mmHg) is reported as 1.91.

With `CCCCCCCCC(=O)Cl` the boiling point was 215 °C and the melting point was -60.5 °C.

Work on `C[C@@H](Cc1ccccc1)NCCC(c1ccccc1)c1ccccc1` yielded a melting point of 36.5 °C.

Compound `O=NN(CCCl)C(=O)NC1CCCCC1` has a melting point of 89 °C.

In the case of `Nc1cc(Cl)c(Cl)cc1N`, the melting point is reported as 160 °C.

`N#Cc1nccnc1C#N` gave a melting point of 132 °C.

In the case of `CC(C)CCC[C@@H](C)[C@H]1CC[C@H]2[C@@H]3CC=C4C=CCC[C@]4(C)[C@H]3CC[C@]12C`, the melting point is reported as 80 °C.

For `O=C(C(Cl)Cl)C(Cl)(Cl)Cl`, the melting point was 2.1 °C.

Work on `CCN1C(=O)OC(C)(C)C1=O` yielded a melting point of 76.5 °C.

`Cc1ccnc(NS(=O)(=O)c2ccc(N)cc2)n1` showed a melting point of 236 °C.

Compound `CC1(C)O[C@@H]2C[C@H]3[C@@H]4CCC5=CC(=O)C=C[C@]5(C)[C@@]4(F)[C@@H](O)C[C@]3(C)[C@]2(C(=O)CO)O1` has a melting point of 293 °C.

For `CN`, the boiling point was -6.3 °C, the log10 Henry constant (atm·m³/mol) was -4.95 and the log10 Koa was 1.9. The log10 vapour pressure (mmHg) was 3.42 and the ready biodegradability was “readily biodegradable”.

`CCCCC(=O)CCC` gave a boiling point of 163 °C.

For `CCCCCCCCCCCCCCCCCCCCCCCCCC`, the boiling point was 412 °C, the log10 biodegradation half-life (days) was 2 and the log10 vapour pressure (mmHg) was -6.33. The melting point was 56.4 °C and the ready biodegradability was “readily biodegradable”.

`COc1ccc(C=CC(=O)c2ccccc2)cc1` gave a melting point of 79 °C.

Work on `Cc1cc(O)ccc1N=Nc1ccccc1` yielded a melting point of 109 °C.

`C=CC(C)(C)O` gave a boiling point of 97 °C, a log10 Henry constant (atm·m³/mol) of -4.68 and a melting point of -28 °C.

Compound `CC1CCC(=O)N1C` (stereo not drawn) has a boiling point of 217 °C.

Work on `O=[N+]([O-])c1cc(Br)ccc1Br` yielded a melting point of 85.5 °C.

`O=C(O)c1ccc(NS(=O)(=O)Cc2ccccc2)cc1` gave a melting point of 230 °C.

Compound `COc1ccc(C(=O)O)c(OC)c1` has a melting point of 109 °C.

`O=P(O)(c1ccccc1)c1ccccc1` gave a melting point of 194 °C.

Work on `CCCCCCCCN(C)C` yielded a boiling point of 191 °C and a melting point of -57 °C.

For `CCCCCCCCCCCCCCCC(=O)CC`, the melting point was 51 °C.

Work on `CC(=O)Nc1ccc(C)c(NS(=O)(=O)C(F)(F)F)c1` yielded a melting point of 176 °C.

In the case of `CCCCCCCCCCCCCCCCCCCCCCCCCCCCCCCCCCCCC`, the boiling point is reported as 505 °C and the ready biodegradability is reported as “readily biodegradable”.

Work on `O=[N+]([O-])c1ccc(-c2ccc([N+](=O)[O-])cc2)cc1` yielded a log10 vapour pressure (mmHg) of -7.56.

`CCCCCCCCCCCCCCCC[N+](C)(C)C.[Br-]` showed a melting point of 240 °C.

With `Nc1ccc(/N=N/c2ccc(S(N)(=O)=O)cc2)c(N)c1` the melting point was 250 °C.

Compound `CCC(=O)CCC(C)C` has a boiling point of 164 °C.

With `S=C=Nc1cccc(Br)c1` the boiling point was 256 °C.

Work on `COC(=O)c1ccc(Cl)cc1` yielded a melting point of 43.5 °C.

`N#CSCc1ccccc1` showed a boiling point of 232 °C and a melting point of 43 °C.

With `c1cncc(-c2ccnc(-c3cccnc3)c2)c1` the melting point was 148 °C.

For `CC(=O)OCc1cnc(N)c(C#N)n1`, the ready biodegradability was “readily biodegradable”.

In the case of `CCCC(=O)Nc1ccccc1`, the log10 Koc (L/kg) is reported as 1.71 and the melting point is reported as 97 °C.

For `OCCN1CC1`, the boiling point was 168 °C.

With `CC(C)(C)c1ccccn1` the boiling point was 170 °C and the melting point was -33 °C.

`CC(C)(O)CC(C)(O)c1ccc(Cl)cc1` (stereo not drawn) showed a melting point of 76.5 °C.

Work on `O=C(OCc1ccccc1)c1sc(Cl)nc1C(F)(F)F` yielded a log10 vapour pressure (mmHg) of -6.53 and a melting point of 52 °C.

With `CCc1cccc(C)c1N` the boiling point was 231 °C and the melting point was -33 °C.

Compound `c1ccc(-c2nnc(-c3ccccn3)nc2-c2ccccc2)cc1` has a melting point of 192 °C.

`COP(=S)(Oc1cc(Cl)c(Br)cc1Cl)c1ccccc1` (stereo not drawn) gave a log10 Koc (L/kg) of 4.5, a log10 vapour pressure (mmHg) of -7.64 and a melting point of 70.4 °C. It also gave a log10 BCF of 3.78 and a log10 biotransformation half-life (days) of 1.26.

With `CCCCOCCC` the boiling point was 118 °C.

In the case of `CCCCc1ccc(C(=O)O)nc1`, the melting point is reported as 97 °C.

With `CCCCCCC(C)(C)O` the boiling point was 178 °C.

In the case of `COP(=S)(OC)Oc1ccc(Sc2ccc(OP(=S)(OC)OC)cc2)cc1`, the log10 Koc (L/kg) is reported as 5 and the melting point is reported as 30 °C.

For `CC1(C)CCc2ccccc21`, the boiling point was 191 °C.

With `O=[N+]([O-])c1ccc(O)c(O)c1` the melting point was 175 °C.

For `O=C1CCCCCCCCCCC(=O)OCCO1`, the melting point was 18 °C.

In the case of `O=C(O)/C=C/c1ccccc1`, the boiling point is reported as 300 °C, the log10 vapour pressure (mmHg) is reported as -4.49 and the melting point is reported as 133 °C.

Work on `CCCCCCCCCCCCCCCCCCC(=O)O` yielded a boiling point of 300 °C and a melting point of 69.4 °C.

In the case of `c1ccc2ncccc2c1`, the boiling point is reported as 237 °C, the log10 Koc (L/kg) is reported as 3.1 and the log10 vapour pressure (mmHg) is reported as -1.22. The melting point was -14.8 °C, the ready biodegradability was “readily biodegradable” and the log10 BCF was 0.58. The log10 biotransformation half-life (days) was -1.33.

In the case of `CC=CC(=O)O`, the boiling point is reported as 185 °C, the log10 vapour pressure (mmHg) is reported as -0.542 and the melting point is reported as 72 °C.

Work on `CC(C)CCCO` yielded a boiling point of 152 °C.

Compound `CCC1C=CCC1` (stereo not drawn) has a boiling point of 97.8 °C.

Work on `Nc1cccc(N)c1N` yielded a boiling point of 336 °C and a melting point of 103 °C.

Work on `CCOCCOCCO` yielded a boiling point of 196 °C, a log10 vapour pressure (mmHg) of -0.9 and a melting point of -76 °C.

Work on `O=C(Nc1ccc(Br)cc1)c1cc(Br)ccc1O` yielded a melting point of 242 °C.

Work on `NC(=O)CCl` yielded a boiling point of 225 °C and a melting point of 121 °C.

With `CCNc1nc(NCC)nc(OC)n1` the log10 Koc (L/kg) was 2.34 and the log10 vapour pressure (mmHg) was -5.62.

With `Clc1c(Cl)c(Cl)c(Oc2c(Cl)c(Cl)c(Cl)c(Cl)c2Cl)c(Cl)c1Cl` the log10 biotransformation half-life (days) was 1.8.
